Source: patent publication US8648066B2 (Exelixis, Inc., priority 2009, dated 2014)

What follows are molecules tested against mTOR/GbL/Raptor (mTORC1) (Homo sapiens, UniProt P42345) (assay: mTOR/GbL/Raptor (mTORC1) ELISA assay). Conditions: phosphorylation of 4E-BP1; 0.2 nM mTORC1, 10 μM ATP; read-out: IC50 in this assay (mTORC1 ELISA).
Type: biochemical
Method in brief: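 Human mTORC1 (0.2 nM) phosphorylated 50 nM His-tagged 4E-BP1 with 10 µM ATP in HEPES pH 7.2 containing 10 mM MnCl2, 120 min at ambient temperature. Substrate was captured on Ni-chelate plates; phospho-4E-BP1 was detected by primary antibody and HRP secondary with luminescence.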

Row | SMILES | IC50
1 | c1ccc2c(N3CCOc4ccc(-c5ccc6cn[nH]c6c5)cc4C3)ccnc2c1 [Example 136, 7-(1H-indazol-6-yl)-4-quinolin-4-yl-2,3,4,5-tetrahydro-1,4-benzoxazepine] | 1000 to 2000 nM
2 | Cc1cccc(Cl)c1S(=O)(=O)Nc1cc(-c2ccc3c(c2)CN(c2ncnc4c2CC(C)(C)CC4)CCO3)cnc1Cl [Example 429, 2-chloro-N-{2-chloro-5-[4-(6,6-dimethyl-5,6,7,8-tetrahydroquinazolin-4-yl)-2,3,4,5-tetrahydro-1,4-benzoxazepin-7-yl]pyridin-3-yl}-6-methylbenzenesulfonamide] | 250 to 1000 nM
3 | Nc1nc2ccc(-c3ccc4c(c3)CN(c3ccnc5ccccc35)CCO4)cc2[nH]1 [Example 190, 6-(4-quinolin-4-yl-2,3,4,5-tetrahydro-1,4-benzoxazepin-7-yl)-1H-benzimidazol-2-amine] | 250 to 1000 nM
4 | COc1ccc2c(N3CCOc4ccc(-c5ccc(N)cc5)cc4C3)nc(C)nc2c1 [Example 504, 4-{4-[2-methyl-7-(methyloxy)quinazolin-4-yl]-2,3,4,5-tetrahydro-1,4-benzoxazepin-7-yl}aniline] | 250 to 1000 nM
5 | CC1(C)CCc2ncnc(N3CCOc4ccc(-c5cnc(N)c(S(=O)(=O)NC[C@@H]6CCCN6)c5)cc4C3)c2C1 [Example 383, 2-amino-5-[4-(6,6-dimethyl-5,6,7,8-tetrahydroquinazolin-4-yl)-2,3,4,5-tetrahydro-1,4-benzoxazepin-7-yl]-N-[(2S)-pyrrolidin-2-ylmethyl]pyridine-3-sulfonamide] | 50 to 250 nM
6 | CNC(=O)Nc1ccc(-c2ccc3c(c2)CN(c2nc(C)nc4cc(OC)ccc24)CCO3)cc1 [Example 361, 1-methyl-3-(4-{4-[2-methyl-7-(methyloxy)quinazolin-4-yl]-2,3,4,5-tetrahydro-1,4-benzoxazepin-7-yl}phenyl)urea] | ≥ 2000 nM
7 | Cc1nc2ccc(-c3ccc4c(c3)CN(c3ncnc(C)c3Cc3cccc(C(F)(F)F)c3)CCO4)cc2[nH]1 [Example 92, 7-(2-methyl-1H-benzimidazol-6-yl)-4-(6-methyl-5-{[3-(trifluoromethyl)phenyl]methyl}pyrimidin-4-yl)-2,3,4,5-tetrahydro-1,4-benzoxazepine] | 250 to 1000 nM
8 | Cc1nc2cc(-c3ccc4c(c3)CN(c3nc(CN(C)C)nc(C)c3CC(C)C)CCO4)ccc2[nH]1 [Example 655, N,N-dimethyl-1-{4-methyl-6-[7-(2-methyl-1H-benzimidazol-5-yl)-2,3-dihydro-1,4-benzoxazepin-4(5H)-yl]-5-(2-methylpropyl)pyrimidin-2-yl}methanamine] | 250 to 1000 nM
9 | COc1ccc2c(N3CCOc4ccc(-c5cnc(N)c([S+]([O-])C[C@@H](C)CO)c5)cc4C3)ncnc2c1 (stereo partly drawn) [Example 302, (2S)-3-[(2-amino-5-{4-[7-(methyloxy)quinazolin-4-yl]-2,3,4,5-tetrahydro-1,4-benzoxazolin-7-yl}pyridin-3-yl)sulfinyl]-2-methylpropan-1-ol] | 250 to 1000 nM
10 | COc1c(OCc2ccccc2)ccc2c(N3CCOc4ccc(-c5ccc6nc(C)[nH]c6c5)cc4C3)ncnc12 [Example 39, 7-(2-methyl-1H-benzimidazol-6-yl)-4-{8-(methyloxy)-7-[(phenylmethyl)oxy]quinazolin-4-yl}-2,3,4,5-tetrahydro-1,4-benzoxazepine] | 50 to 250 nM
11 | Cc1nc2ccc(-c3ccc4c(c3)CN(c3ncnc5cc(S(C)(=O)=O)ccc35)CCO4)cc2[nH]1 [Example 40, 7-(2-methyl-1H-benzimidazol-6-yl)-4-[7-(methylsulfonyl)quinazolin-4-yl]-2,3,4,5-tetrahydro-1,4-benzoxazepine] | 50 to 250 nM
12 | Cc1nc(N)sc1-c1ccc2c(c1)CN(c1ncnc(C)c1Cc1ccc(F)cc1)CCO2 [Example 154, 5-(4-{5-[(4-fluorophenyl)methyl]-6-methylpyrimidin-4-yl}-2,3,4,5-tetrahydro-1,4-benzoxazepin-7-yl)-4-methyl-1,3-thiazol-2-amine] | 50 to 250 nM
13 | COc1ccc2c(N3CCOc4ccc(-c5cnc6[nH]c(C)nc6c5)cc4C3)nc(C)nc2c1 [Example 568, 7-(2-methyl-1H-imidazo[4,5-b]pyridin-6-yl)-4-[2-methyl-7-(methyloxy)quinazolin-4-yl]-2,3,4,5-tetrahydro-1,4-benzoxazepine] | 50 to 250 nM
14 | Cc1nc2ncc(-c3ccc4c(c3)CN(c3nc(CN(C)C)nc5ccc(F)cc35)CCO4)cc2[nH]1 [Example 359, 1-{6-fluoro-4-[7-(2-methyl-1H-imidazo[4,5-b]pyridin-6-yl)-2,3-dihydro-1,4-benzoxazepin-4(5H)-yl]quinazolin-2-yl}-N,N-dimethylmethanamine] | 250 to 1000 nM
15 | COc1cc2nccc(N3CCOc4ccc(-c5cnc6nc(N)[nH]c6c5)cc4C3)c2cc1OC [Example 188, 6-{4-[6,7-bis(methyloxy)quinolin-4-yl]-2,3,4,5-tetrahydro-1,4-benzoxazepin-7-yl}-1H-imidazo[4,5-b]pyridin-2-amine] | 50 to 250 nM

Continued, values first:

Row | IC50 | SMILES
16 | 10 to 50 nM | CC1(C)CCc2ncnc(N3CCOc4ccc(-c5cnc(N)c(S(=O)(=O)NCC(N)=O)c5)cc4C3)c2C1 [Example 636, N~2~-({2-amino-5-[4-(6,6-dimethyl-5,6,7,8-tetrahydroquinazolin-4-yl)-2,3,4,5-tetrahydro-1,4-benzoxazepin-7-yl]pyridin-3-yl}sulfonyl)glycinamide]
17 | 10 to 50 nM | CC[C@H]1CCc2c(nc(CN(C)C)nc2N2CCOc3ccc(-c4cnc5nc(C)[nH]c5c4)cc3C2)C1 [Example 334, 1-{(7S)-7-ethyl-4-[7-(2-methyl-1H-imidazo[4,5-b]pyridin-6-yl)-2,3-dihydro-1,4-benzoxazepin-4(5H)-yl]-5,6,7,8-tetrahydroquinazolin-2-yl}-N,N-dimethylmethanamine]
18 | 10 to 50 nM | CC1(C)CCc2ncnc(N3CCOc4ccc(-c5cnc(N)c(S(=O)(=O)N6C7CCC6CC(N)C7)c5)cc4C3)c2C1 (stereo not drawn) [Example 575, 8-({2-amino-5-[4-(6,6-dimethyl-5,6,7,8-tetrahydroquinazolin-4-yl)-2,3,4,5-tetrahydro-1,4-benzoxazepin-7-yl]pyridin-3-yl}sulfonyl)-8-azabicyclo[3.2.1]octan-3-amine]
19 | ≤ 10 nM | CNC(=O)c1ccc(-c2ccc3c(c2)CN(c2ncnc(C)c2Cc2ccc(F)cc2)CCO3)cc1 [Example 171, 4-(4-{5-[(4-fluorophenyl)methyl]-6-methylpyrimidin-4-yl}-2,3,4,5-tetrahydro-1,4-benzoxazepin-7-yl)-N-methylbenzamide]
20 | 50 to 250 nM | Nc1nc2ncc(-c3ccc4c(c3)CN(c3ncnc5cccnc35)CCO4)cc2[nH]1 [Example 227, 6-(4-pyrido[3,2-d]pyrimidin-4-yl-2,3,4,5-tetrahydro-1,4-benzoxazepin-7-yl)-1H-imidazo[4,5-b]pyridin-2-amine]
21 | ≤ 10 nM | CNc1ncc(-c2ccc3c(c2)CN(c2ncnc4c2CC(C)(C)CC4)CCO3)cc1S(=O)(=O)NCCO [Example 520, 5-[4-(6,6-dimethyl-5,6,7,8-tetrahydroquinazolin-4-yl)-2,3,4,5-tetrahydro-1,4-benzoxazepin-7-yl]-N-(2-hydroxyethyl)-2-(methylamino)pyridine-3-sulfonamide]
22 | ≤ 10 nM | Cc1nc2ccc(-c3ccc4c(c3)CN(c3ncnc(C)c3C(C)C)CCO4)cc2[nH]1 [Example 66, 7-(2-methyl-1H-benzimidazol-6-yl)-4-[6-methyl-5-(1-methylethyl)pyrimidin-4-yl]-2,3,4,5-tetrahydro-1,4-benzoxazepine]
23 | ≤ 10 nM | Cc1nc2ccc(-c3ccc4c(c3)CN(c3ncnc(C)c3Cc3cccc(Cl)c3)CCO4)cc2[nH]1 [Example 73, 4-{5-[(3-chlorophenyl)methyl]-6-methylpyrimidin-4-yl}-7-(2-methyl-1H-benzimidazol-6-yl)-2,3,4,5-tetrahydro-1,4-benzoxazepine]
24 | 10 to 50 nM | C[C@H](CO)CS(=O)(=O)c1cc(-c2ccc3c(c2)CN(c2ncnc4c2CC(C)(C)CC4)CCO3)cnc1N [Example 299, (2R)-3-({2-amino-5-[4-(6,6-dimethyl-5,6,7,8-tetrahydroquinazolin-4-yl)-2,3,4,5-tetrahydro-1,4-benzoxazepin-7-yl]pyridin-3-yl}sulfonyl)-2-methylpropan-1-ol]
25 | ≤ 10 nM | Cc1nc2ccc(-c3ccc4c(c3)CN(c3ncnc(C)c3C(C)c3ccccc3)CCO4)cc2[nH]1 (stereo not drawn) [Example 74]
26 | 10 to 50 nM | C=Cc1nc2c(c(N3CCOc4ccc(-c5cnc6[nH]c(C)nc6c5)cc4C3)n1)CC(C)(C)CC2 [Example 465, 4-(2-ethenyl-6,6-dimethyl-5,6,7,8-tetrahydroquinazolin-4-yl)-7-(2-methyl-3H-imidazo[4,5-b]pyridin-6-yl)-2,3,4,5-tetrahydro-1,4-benzoxazepine]
27 | ≤ 10 nM | CC1(C)CCc2ncnc(N3CCOc4ccc(-c5cnc6[nH]c(CF)nc6c5)cc4C3)c2C1 [Example 238, 4-(6,6-dimethyl-5,6,7,8-tetrahydroquinazolin-4-yl)-7-[2-(fluoromethyl)-3H-imidazo[4,5-b]pyridin-6-yl]-2,3,4,5-tetrahydro-1,4-benzoxazepine]
28 | ≤ 10 nM | CC1(C)C=Cc2ncnc(N3CCOc4ccc(-c5cnc6nc(C7CC7)[nH]c6c5)cc4C3)c2C1 [Example 545, 7-(2-cyclopropyl-1H-imidazo[4,5-b]pyridin-6-yl)-4-(6,6-dimethyl-5,6-dihydroquinazolin-4-yl)-2,3,4,5-tetrahydro-1,4-benzoxazepine]
29 | ≤ 10 nM | Cc1nc2ncc(-c3ccc4c(c3)CN(c3nc(CN(C)C)nc5c3CC(C)(C)CC5)CCO4)cc2[nH]1 [Example 353, 1-{6,6-dimethyl-4-[7-(2-methyl-1H-imidazo[4,5-b]pyridin-6-yl)-2,3-dihydro-1,4-benzoxazepin-4(5H)-yl]-5,6,7,8-tetrahydroquinazolin-2-yl}-N,N-dimethylmethanamine]
30 | 10 to 50 nM | CC1(C)CCc2ncnc(N3CCOc4ccc(-c5cnc(Cl)c(NS(C)(=O)=O)c5)cc4C3)c2C1 [Example 623, N-{2-chloro-5-[4-(6,6-dimethyl-5,6,7,8-tetrahydroquinazolin-4-yl)-2,3,4,5-tetrahydro-1,4-benzoxazepin-7-yl]pyridin-3-yl}methanesulfonamide]
